“Also recorded” adds a separate entry of the source. Read-outs that look alike come from different tables or passages of the source.
How the values were obtained:
[1] = test system: human platelet-poor plasma clotting; assay: Plasma clotting time (fibrin formation); conditions: three concentrations of ATV, Figure S3
Experimental: Human blood samples were collected from healthy donors in 3.8% trisodium citrate (9:1, v/v), and platelet-poor plasma was obtained by centrifugation at 3000 rpm for 10 min. […] Time for clot formation was recorded in triplicates.

[2] = test system: SARS-CoV-2 gamma strain (P1, B.1.1.28); assay: microbe, parasite or virus in culture; conditions: Severe acute respiratory syndrome coronavirus 2, Calu-3, 48 h
[3] = molecular target: T1, SARS-CoV-2 main protease (M^pro) (Severe acute respiratory syndrome coronavirus 2, UniProt P0DTD1); assay: biochemical
T1 construct: purchased BPS Bioscience #79955-1
Experimental: (§1) Fluorescence signal was measured at an emission wavelength of 460 nm with excitation at 360 nm in a GloMax® (Promega, Madison, WI, USA) plate reader. Morrison’s inhibitory constant (Ki) was calculated by non-linear regression using GraphPad Prism 9. […] After fluorescence quantification, the Michaelis–Menten constant (Km) and maximum velocity (Vmax) were calculated by non-linear regression using GraphPad Prism 9. The value was presented as mean ± standard deviation (SD).

SARS-CoV-2 B.1 lineage = assay: microbe, parasite or virus in culture; assay type: cell-based
SARS-CoV-2 gamma strain = assay type: in vivo, K18-hACE2 mice
[4] = Pharmacokinetics in plasma and lungs after oral dosing; assay type: in vivo, Swiss–Webster mice; conditions: mice, 60 mg/kg oral
Experimental: Each treatment group had five animals. After these periods of times, total blood and lungs were collected. Plasma was obtained by blood centrifugation at 8000× g for 15 min. Time zero was obtained by analyzing the matrix pool (blood plasma) of untreated animals. The pharmacokinetic parameters of half-life (t1/2, h), time until maximum concentration is reached (tmax, h), maximum compound concentration (Cmax, ng/mL) and area under the curve (AUC, h.ng/mL) were determined. The experiments performed in this section were approved by the Committee on the Use of Laboratory Animals of the Oswaldo Cruz Foundation (CEUA-FIOCRUZ, license L003/21).

[5] = molecular target: T2, SARS-CoV-2 papain-like protease (PL^pro) (Severe acute respiratory syndrome coronavirus 2, UniProt P0DTD1); assay: SARS-CoV-2 PL^pro enzymatic assay (BPS Bioscience kit); assay type: biochemical
T2 construct: purchased BPS Bioscience #79995-1
Experimental: as §1

Cytotoxic assay = assay type: cell-based; conditions: African green monkey, table title says Calu-3 cells, method says Vero cells
Experimental: All experiments were carried out at least three independent times and each data was analyzed from Prism GraphPad software 8.0 (Windows GraphPad Software, San Diego, CA, USA). The results were presented as mean ± standard deviation (SD).

[6] = test system: SARS-CoV-2 gamma strain (P1, B.1.1.28)

COC(=O)N[C@H](C(=O)N[C@@H](Cc1ccccc1)[C@@H](O)CN(Cc1ccc(-c2ccccn2)cc1)NC(=O)[C@@H](NC(=O)OC)C(C)(C)C)C(C)(C)C [ATV, atazanavir]
Anti-clotting activity [1]: could not prevent hemorrhage as an anti-clotting agent | EC50 [2]: 399 ± 20 nM | Ki [3]: 703 ± 79 nM | Increase of M^pro's Km by the inhibitor ([3]; 2.5 μM ATV versus absence): more than sixfold | Inhibition profile (mechanism) ([3]; Vmax not different, Km increased): competitive inhibition profile | Maximum velocity (Vmax) of M^pro ([3]; in the presence of 2.5 μM ATV, substrate 0–100 μM): 24.94 ± 3.70 µM/min | EC50 (SARS-CoV-2 B.1 lineage): 321 ± 16 nM | EC50 (SARS-CoV-2 B.1 lineage; Severe acute respiratory syndrome coronavirus 2, Calu-3, 48 h): 490 ± 20 nM | Body weight, treated versus untreated infected mice (SARS-CoV-2 gamma strain; 60 mg/kg oral daily): not a statical difference | Lung injury (hemorrhage, shrinking of lobe, bronchiole and alveoli), histology (SARS-CoV-2 gamma strain; 60 mg/kg oral daily): reduced | SARS-CoV-2-induced IL-6 levels in the BAL and in the lungs (SARS-CoV-2 gamma strain; 60 mg/kg oral daily): reduced | Levels of IL-6, TNF-a, KC and PF4 in the BAL (SARS-CoV-2 gamma strain; 60 mg/kg oral daily, compared to untreated mice): lower levels | Animal survival (in words) (SARS-CoV-2 gamma strain; mouse, in vivo): statistically significant increase | Cell death (LDH activity) in BAL (SARS-CoV-2 gamma strain; mouse, in vivo): significantly decreased | Enhancement of survival (SARS-CoV-2 gamma strain; mouse, in vivo): 30% | Polymorphonuclear and mononuclear cell counts in BAL (SARS-CoV-2 gamma strain; mouse, in vivo): significantly decreased | SARS-CoV-2 RNA levels in BAL (SARS-CoV-2 gamma strain; mouse, in vivo): significantly decreased | AUC ([4]; Swiss-Webster, mouse, plasma): 14300 ng·h/mL | Cmax ([4]; Swiss-Webster, mouse, plasma): 7430 ng/mL | Tmax ([4]; Swiss-Webster, mouse, plasma): 1 h | half-life ([4]; Swiss-Webster, mouse, plasma): 9.9 h | Distribution to the lung ([4]; AUC lung versus plasma): concentrated in the lung | Inhibition of PL^pro (in words) ([5]; 0–10 μM): did not inhibit; also recorded: above the threshold of in vitro inhibition | Ki ([5]; 100 nM PL^pro, 25 μM substrate, 45–60 min, 0–10 μM inhibitor, read-out: Morrison's inhibitory constant (Ki)): 9870 nM | CC50 at 3 days (Cytotoxic assay): 312000 ± 8000 nM

CCC(CC)COC(=O)[C@H](C)N[P@](=O)(OC[C@H]1O[C@@](C#N)(c2ccc3c(N)ncnn23)[C@H](O)[C@@H]1O)Oc1ccccc1 [RDV, remdesivir]
EC50 [2]: 113 ± 10 nM | CC50 at 3 days (Cytotoxic assay): 512000 ± 30000 nM | SI (CC50/EC50) [6]: 4530
